Data on 6 compounds can be found in patent US20220002267A1, “TYROSINE KINASE 2 INHIBITORS, PREPARATION METHODS AND MEDICINAL USES THEREOF” (Eternity Bioscience Inc., priority 2020, published 2022).

In test [1] the test system is Tyk2-mediated, IFNα-induced STAT1 phosphorylation in human Kit225 T cell line. Put plainly: IFNα_Kit225 T Cell Assay (phosphorylated-STAT1, AlphaLISA). Type of test: cell-based. The note with it: Kit225 cells, compound 1 hour, human recombinant IFNα 20 minutes, pSTAT1; read-out: IFN-α Kit225 (IC50). As for the experimental part:
(§1) Kit225 cells were seeded in 384-well plate at a density of 0.5×10^5 cells/well in 4 μL HBSS, and incubated for 2 hours in a humidified, 5% CO2 cell culture incubator at 37° C. The cells were treated with serial diluted compounds for 1 hour and stimulated with human recombinant IFNα (Biolegend) for 20 minutes. The treated cells were then lysed and cellular phosphorylated-STAT1 levels were measured by AlphaLISA (PerkinElmer) according to the manufacture's instructions. Inhibition data were calculated by comparison to vehicle control wells for 0% inhibition and non-stimulated control wells for 100% inhibition. Dose response curves were then generated to determine the concentration required to suppress 50% of cellular response (IC50) as derived by non-linear regression analysis using GraphPad Prism.

Test [2] relates to Tyk2-mediated, IL23-induced STAT3 phosphorylation in human Kit225 T cell line. As to the kind of experiment: IL-23_Kit225 T Cell Assay (phosphorylated-STAT3, AlphaLISA). The format is cell-based. The note with it: Kit225 cells, compound 1 hour, human recombinant IL-23 20 minutes, pSTAT3. As for the experimental part:
as §1, with “Kit225 cells (licensed from Professor Toshiyuki Hori, Ritsumeikan University, Japan) were seeded” for “Kit225 cells were seeded”, “density of 1×10^5 cells/well in” for “density of 0.5×10^5 cells/well in”, “4 μL Hank's Balanced Salt Solution (HBSS, Gibco), and incubated” for “4 μL HBSS, and incubated”, “human recombinant IL-23 (R&D Systems) for 20” for “human recombinant IFNα (Biolegend) for 20”, “and cellular phosphorylated-STAT3 levels were” for “and cellular phosphorylated-STAT1 levels were”
A general note: Alpha assays give light when donor and acceptor beads are brought close together.

A further test has as its target T1, Tyk2 JH2 Pseudokinase (Homo sapiens, UniProt P29597).
T1 construct: purchased Eurofins DiscoverX Corporation (CRO); host or cells: E. coli BL21-derived host (T7 phage) or HEK-293 cells
As to the kind of experiment: KdELECT Competition Binding Assay. The note with it: 11-point 3-fold dilution series; performed by Eurofins DiscoverX. As for the experimental part: The KdELECT Competition Binding Assay is performed by a CRO, Eurofins DiscoverX Corporation following the established standard protocol (DiscoverX, San Diego, Calif.). Briefly, Kinase-tagged T7 phage strains were prepared in an E. coli host derived from the BL21 strain. E. coli were grown to log-phase and infected with T7 phage and incubated with shaking at 32° C. until lysis. The lysates were centrifuged and filtered to remove cell debris. The remaining kinases were produced in HEK-293 cells and subsequently tagged with DNA for qPCR detection. Streptavidin-coated magnetic beads were treated with biotinylated small molecule ligands for 30 minutes at room temperature to generate affinity resins for kinase assays. The liganded beads were blocked with excess biotin and washed with blocking buffer (SeaBlock (Pierce), 1% BSA, 0.05% Tween 20, 1 mM DTT) to remove unbound ligand and to reduce nonspecific binding. Binding reactions were assembled by combining kinases, liganded affinity beads, and test compounds in 1× binding buffer (20% SeaBlock, 0.17×PBS, 0.05% Tween 20, 6 mM DTT). Test compounds were prepared as 111-fold stocks in 100% DMSO. Kds were determined using an 11-point 3-fold compound dilution series with three DMSO control points. All compounds for Kd measurements are distributed by acoustic transfer (non-contact dispensing) in 100% DMSO. The compounds were then diluted directly into the assays such that the final concentration of DMSO was 0.9%. All reactions performed in polypropylene 384-well plate. Each was a final volume of 0.02 mL. The assay plates were incubated at room temperature with shaking for 1 hour and the affinity beads were washed with wash buffer (1×PBS, 0.05% Tween 20). The beads were then re-suspended in elution buffer (1×PBS, 0.05% Tween 20, 0.5 μM non-biotinylated affinity ligand) and incubated at room temperature with shaking for 30 minutes. The kinase concentration in the eluates was measured by quantitative PCR.
Compound Handling: An 11-point 3-fold serial dilution of each test compound was prepared in 100% DMSO at 100-fold final test concentration and subsequently diluted to 1-fold in the assay (final DMSO concentration=1%). Most Kds were determined using a compound top concentration=30,000 nM. If the initial Kd determined was <0.5 nM (the lowest concentration tested), the measurement was repeated with a serial dilution starting at a lower top concentration.

The test system of test [3] is IL-12/IL-23 and Type I IFN pathways. The note with it: Tokarski et al. 2015; cited from earlier work.
Test [4] has as its system experimental autoimmune disease models (psoriasis, SLE, and IBD). The note with it: cited from earlier work.

pIC50, pKd: −log10 of the molar value.

T1 sequence (P29597 589-875 limits assumed): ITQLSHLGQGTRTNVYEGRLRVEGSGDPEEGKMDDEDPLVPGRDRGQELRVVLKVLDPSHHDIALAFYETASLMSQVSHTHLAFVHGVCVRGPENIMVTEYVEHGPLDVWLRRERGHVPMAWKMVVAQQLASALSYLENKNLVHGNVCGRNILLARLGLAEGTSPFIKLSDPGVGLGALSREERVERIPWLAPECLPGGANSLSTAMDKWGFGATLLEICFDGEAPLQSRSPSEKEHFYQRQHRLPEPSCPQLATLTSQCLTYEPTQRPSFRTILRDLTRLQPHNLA

As a reminder, the pIC50 is the IC50 on a negative log10 scale, so that one unit is a factor of ten. One may read the pKd as the Kd on a negative log10 scale, so that one unit is a factor of ten. Consider `CNC(=O)c1nnc(Nc2cccc(N3CCC3)n2)cc1Nc1cccc(-c2ncn(C)n2)c1OC` [Example A3, 6-((6-(azetidin-1-yl)pyridin-2-yl)amino)-4-((2-methoxy-3-(1-methyl-1H-1,2,4-triazol-3-yl)phenyl)amino)-N-methylpyridazine-3-carboxamide], for which the negative-log IC50 (pIC50) is 8.22 in test [1] and 7.82 in test [2]. The compound further gave a pKd at Tyk2 JH2 Pseudokinase of 10.96.
For `[2H]C([2H])([2H])NC(=O)c1nnc(Nc2ccc(C3(O)COC3)cn2)cc1Nc1cccc(-c2ncn(C)n2)c1OC` [Example A5, 6-((5-(3-hydroxyoxetan-3-yl)pyridin-2-yl)amino)-4-((2-methoxy-3-(1-methyl-1H-1,2,4-triazol-3-yl)phenyl)amino)-N-(methyl-d3)pyridazine-3-carboxamide], the results for the negative-log IC50 (pIC50) in test [1] and in test [2] were 6.64 and 7.42, respectively. On Tyk2 JH2 Pseudokinase, this compound gave a pKd of 11.37.
As to `[2H]C([2H])([2H])NC(=O)c1nnc(Nc2ccc(N3CC(OC)C3)cn2)cc1Nc1cccc(-c2ncn(C)n2)c1OC` [Example A4, 4-((2-methoxy-3-(1-methyl-1H-1,2,4-triazol-3-yl)phenyl)amino)-6-((5-(3-methoxyazetidin-1-yl)pyridin-2-yl)amino)-N-(methyl-d3)pyridazine-3-carboxamide], the pIC50 in test [1] is 7.08; in test [2], 8.23. The same compound gave a pKd at Tyk2 JH2 Pseudokinase of 11.28.
As for `CNC(=O)c1nnc(Nc2ccc(N3CCC3)cn2)cc1Nc1cccc(-c2ncn(C)n2)c1OC` [Example A1, 6-((5-(azetidin-1-yl)pyridin-2-yl)amino)-4-((2-methoxy-3-(1-methyl-1H-1,2,4-triazol-3-yl)phenyl)amino)-N-methylpyridazine-3-carboxamide], the figures for the negative-log IC50 (pIC50) in test [1] and in test [2] were 7.96 and 8.17, respectively. Also, the negative-log Kd (pKd) on Tyk2 JH2 Pseudokinase is 10.17.
Consider `CNC(=O)c1nnc(Nc2ccc(N3CC(F)(F)C3)cn2)cc1Nc1cccc(-c2ncn(C)n2)c1OC` [Example A2, 6-((5-(3,3-difluoroazetidin-1-yl)pyridin-2-yl)amino)-4-((2-methoxy-3-(1-methyl-1H-1,2,4-triazol-3-yl)phenyl)amino)-N-methylpyridazine-3-carboxamide], for which the pIC50 in test [1] is 7.60; in test [2], 7.51. This compound also gave a pKd at Tyk2 JH2 Pseudokinase of 11.20.
As to BMS986165, the “block of IL-12/IL-23 and Type I IFN pathways” value in test [3] is recorded as “effectively block”. For the same compound, the “in vivo efficacy in experimental autoimmune disease models” value in test [4] is given as “substantial in vivo efficacy”.
